Experimental data reported in EP3049422B1, “INTUMESCENT COATINGS” (MIPA SE, priority 2013, dated 2015).

Test: Water solubility of the salts
Format: physicochemical
Settings: not given
From the text: Organische Lösungsmittel tragen zur Umweltverschmutzung bei und deshalb ist es wünschenswert, Wasser als Basis für Reaktionen oder auch Lacke zu verwenden. […] Wir beobachteten, dass vor allem die Kombination mit Alkalimetallen zu einer sehr guten Löslichkeit führte.
Ein wichtiges Kriterium für die Auswahl der Substanzen für eingehendere Studien, war deren Wasserlöslichkeit. Ausgeschlossen wurden vor allem Verbindungen, die höhere Kationen als die Alkalimetalle enthalten, da diese nur sehr schlecht löslich sind. Trotzdem wurde zumindest für zwei wasserunlösliche Salze versucht, sie als Suspensionen aufzubringen. Ausgewählt wurden dafür ALDA und Calcium(II)hydantoinat.

Row | Compound | Wasser löslich | Wasserlöslichkeit
1 | O=C1CN(CN2CC(=O)NC2=O)C(=O)N1 [1,1'-(Methylen) bishydantoin Kalium, Kalium(I)N,N'-methylenbishydantoinat] | + | 
2 | O=C1CN(CN2CC(=O)[N-]C2=O)C(=O)[N-]1.OC[P+](CO)(CO)CO.OC[P+](CO)(CO)CO [Bis[tetrakis(hydroxymethyl)phosphonium]N,N'-methylenbishydantoinat] | + | 
3 | O=C1CN(CN2CC(=O)NC2=O)C(=O)N1 [1,1'-(Methylen) bishydantoin Natrium, Natrium(I)N,N'-methylenbishydantoinat] | + | 
4 | CC(N1CC(=O)NC1=O)N1CC(=O)NC1=O [1,1'-(Methylmethylen) bishydantoin Kalium] [Kalium(I)N,N'-(methylmethylen)bishydantoinat] | + | 
5 | O=C1CNC(=O)N1 [Hydantoin Tetramethylammonium, Tetramethylammoniumhydantoinat] | + | 
6 | NC(=O)NC1NC(=O)NC1=O (stereo not shown) [Allantoin, reference compound] |  | schlecht wasserlöslich
7 | NC(=O)NC1NC(=O)NC1=O (stereo not shown) [Allantoin Calcium, Calcium(II)allantoinat] | + | 
8 | Tetrakis(hydroxymethyl)phosphoniumhydantoinat | + | 
9 | Dihydroxyaluminiumallantoinat [Allantoin Al(OH)2*, reference compound] | - | 
10 | CC(N1CC(=O)NC1=O)N1CC(=O)NC1=O [1,1'-(Methylmethylen) bishydantoin Natrium] [Natrium(I)N,N'-(methylmethylen)bishydantoinat] | + | 
11 | O=C1CNC(=O)N1 [Hydantoin Calcium, Calcium(II)hydantoinat] | - | 
12 | O=C1CNC(=O)N1 [Hydantoin Natrium, Natrium(I)hydantoinat] | + | 
13 | O=C1CNC(=O)N1 [Hydantoin Kalium, Kalium(I)hydantoinat] | + | 
14 | CC(N1CC(=O)NC1=O)N1CC(=O)NC1=O [1,1'-(Methylmethylen) bishydantoin Calcium] [Calcium(II)N,N'-(methylmethylen)bishydantoinat] | + | 
15 | NC(=O)NC1NC(=O)NC1=O (stereo not shown) [Allantoin Natrium, Natrium(I)allantoinat] | + | 
16 | NC(=O)NC1NC(=O)NC1=O (stereo not shown) [Allantoin Kalium, Kalium(I)allantoinat] | + | 

Same assay, conditions: in words

Row | Compound | Wasserlöslichkeit
17 | O=C1CNC(=O)N1 [Hydantoin, reference compound] | schlecht wasserlöslich
18 | Dihydroxyaluminiumallantoinat [Allantoin Al(OH)2*, reference compound] | wasserunlösliche
19 | O=C1CNC(=O)N1 [Hydantoin Calcium, Calcium(II)hydantoinat] | wasserunlösliche
